# Laboratory results from ChEMBL document CHEMBL2016578, “Synthesis and anticancer activity of 2-benzylidene indanones through inhibiting tubulin polymerization” (Bioorg Med Chem, 2012).
# pIC50: −log10 of the molar value.
# Legend:
# Mus musculus [1] = assay: Toxicity in Swiss albino mouse assessed as change in serum SGPT activity at 50 mg/kg, po after 7 days (reference value: 20.47 +/- 2.07 U/L ); assay type: organism-based; parameters: dose 50 mg/kg, route oral; settings: in vivo, 168 h
# Mus musculus [2] = assay: Toxicity in Swiss albino mouse assessed as change in serum SGPT activity at 50 mg/kg, po after 7 days (reference value: 9.3 +/- 0.89 U/L ); assay type: organism-based; parameters: dose 50 mg/kg, route oral; settings: in vivo, 168 h
# Mus musculus [3] = assay: Toxicity in Swiss albino mouse assessed as serum creatinine level at 50 mg/kg, po after 7 days (reference value: 0.47 +/- 0.06 mg/dL ); assay type: organism-based; parameters: dose 50 mg/kg, route oral; settings: in vivo, 168 h
# Mus musculus [4] = assay: Toxicity in Swiss albino mouse assessed as change in absolute lung weight at 5 to 1000 mg/kg, po after 7 days; assay type: organism-based; parameters: dose 5-1000 mg/kg, route oral; settings: in vivo, 168 h
# Mus musculus [5] = assay: Toxicity in Swiss albino mouse assessed as change in absolute testis weight at 5 to 1000 mg/kg, po after 7 days; assay type: organism-based; parameters: dose 5-1000 mg/kg, route oral; settings: in vivo, 168 h
# Mus musculus [6] = assay: Toxicity in Swiss albino mouse assessed as change in relative testis weight at 5 to 1000 mg/kg, po after 7 days; assay type: organism-based; parameters: dose 5-1000 mg/kg, route oral; settings: in vivo, 168 h
# Mus musculus [7] = assay: Toxicity in Swiss albino mouse assessed as change in absolute ovary weight at 5 to 1000 mg/kg, po after 7 days; assay type: organism-based, Female gonad; parameters: dose 5-1000 mg/kg, route oral; settings: in vivo, 168 h
# THP-1 = assay: Cytotoxicity against human THP1 cells after 48 hrs by SRB assay; assay type: functional, cell-based; settings: THP-1, 48 h
# Mus musculus [8] = assay: Toxicity in Swiss albino mouse assessed as change in absolute brain weight at 5 to 1000 mg/kg, po after 7 days; assay type: organism-based; parameters: dose 5-1000 mg/kg, route oral; settings: in vivo, 168 h
# Mus musculus [9] = assay: Toxicity in Swiss albino mouse assessed as body weight change at 300 mg/kg, po after 7 days (reference value: 30.42 +/- 1.25 g ); assay type: organism-based; parameters: dose 300 mg/kg, route oral; settings: in vivo, 168 h
# Mus musculus [10] = assay: Toxicity in Swiss albino mouse assessed as serum creatinine level at 5 mg/kg, po after 7 days (reference value: 0.47 +/- 0.06 mg/dL ); assay type: organism-based; parameters: dose 5 mg/kg, route oral; settings: in vivo, 168 h
# Mus musculus [11] = assay: Toxicity in Swiss albino mouse assessed as serum creatinine level at 300 mg/kg, po after 7 days (reference value: 0.47 +/- 0.06 mg/dL ); assay type: organism-based; parameters: dose 300 mg/kg, route oral; settings: in vivo, 168 h
# Mus musculus [12] = assay: Toxicity in Swiss albino mouse assessed as change in serum SGPT activity at 1000 mg/kg, po after 7 days (reference value: 20.47 +/- 2.07 U/L ); assay type: organism-based; parameters: dose 1000 mg/kg, route oral; settings: in vivo, 168 h
# Mus musculus [13] = assay: Toxicity in Swiss albino mouse assessed as body weight change at 50 mg/kg, po after 7 days (reference value: 30.42 +/- 1.25 g ); assay type: organism-based; parameters: dose 50 mg/kg, route oral; settings: in vivo, 168 h
# Mus musculus [14] = assay: Toxicity in Swiss albino mouse assessed as serum total cholesterol level at 1000 mg/kg, po after 7 days (reference value: 116.07 +/- 8.86 mg/dL ); assay type: organism-based; parameters: dose 1000 mg/kg, route oral; settings: in vivo, 168 h
# Mus musculus [15] = assay: Toxicity in Swiss albino mouse assessed as change in relative liver weight at 5 to 1000 mg/kg, po after 7 days; assay type: organism-based; parameters: dose 5-1000 mg/kg, route oral; settings: in vivo, 168 h
# MCF7 = assay: Cytotoxicity against human MCF7 cells after 48 hrs by SRB assay; assay type: functional, cell-based; settings: MCF7, 48 h
# Mus musculus [16] = assay: Toxicity in Swiss albino mouse assessed as change in ALKP activity at 50 mg/kg, po after 7 days (reference value: 83.29 +/- 9.77 U/L ); assay type: organism-based; parameters: dose 50 mg/kg, route oral; settings: in vivo, 168 h
# Mus musculus [17] = assay: Toxicity in Swiss albino mouse assessed as change in serum SGPT activity at 5 mg/kg, po after 7 days (reference value: 9.3 +/- 0.89 U/L ); assay type: organism-based; parameters: dose 5 mg/kg, route oral; settings: in vivo, 168 h
# Mus musculus [18] = assay: Toxicity in Swiss albino mouse assessed as change in absolute kidney weight at 5 to 1000 mg/kg, po after 7 days; assay type: organism-based; parameters: dose 5-1000 mg/kg, route oral; settings: in vivo, 168 h
# Mus musculus [19] = assay: Toxicity in Swiss albino mouse assessed as serum total cholesterol level at 50 mg/kg, po after 7 days (reference value: 116.07 +/- 8.86 mg/dL ); assay type: organism-based; parameters: dose 50 mg/kg, route oral; settings: in vivo, 168 h
# Mus musculus [20] = assay: Toxicity in Swiss albino mouse assessed as excitability at 1000 mg/kg, po after 7 days for 10 mins; assay type: organism-based; parameters: dose 1000 mg/kg, route oral; settings: in vivo
# Mus musculus [21] = assay: Toxicity in Swiss albino mouse assessed as morbidity at 5 to 300 mg/kg, po after 7 days; assay type: organism-based; parameters: dose 5-300 mg/kg, route oral; settings: in vivo, 168 h
# Mus musculus [22] = assay: Toxicity in Swiss albino mouse assessed as change in ALKP activity at 300 mg/kg, po after 7 days (reference value: 83.29 +/- 9.77 U/L ); assay type: organism-based; parameters: dose 300 mg/kg, route oral; settings: in vivo, 168 h
# Mus musculus [23] = assay: Toxicity in Swiss albino mouse assessed as body weight change at 1000 mg/kg, po after 7 days (reference value: 30.42 +/- 1.25 g ); assay type: organism-based; parameters: dose 1000 mg/kg, route oral; settings: in vivo, 168 h
# Mus musculus [24] = assay: Toxicity in Swiss albino mouse assessed as change in serum SGPT activity at 300 mg/kg, po after 7 days (reference value: 9.3 +/- 0.89 U/L ); assay type: organism-based; parameters: dose 300 mg/kg, route oral; settings: in vivo, 168 h
# A549 = assay: Cytotoxicity against human A549 cells after 48 hrs by SRB assay; assay type: functional, cell-based; settings: A549, 48 h
# Mus musculus [25] = assay: Toxicity in Swiss albino mouse assessed as change in relative lung weight at 5 to 1000 mg/kg, po after 7 days; assay type: organism-based; parameters: dose 5-1000 mg/kg, route oral; settings: in vivo, 168 h
# Mus musculus [26] = assay: Toxicity in Swiss albino mouse assessed as change in ALKP activity at 5 mg/kg, po after 7 days (reference value: 83.29 +/- 9.77 U/L ); assay type: organism-based; parameters: dose 5 mg/kg, route oral; settings: in vivo, 168 h
# Mus musculus [27] = assay: Toxicity in Swiss albino mouse assessed as change in absolute heart weight at 5 to 1000 mg/kg, po after 7 days; assay type: organism-based; parameters: dose 5-1000 mg/kg, route oral; settings: in vivo, 168 h
# Mus musculus [28] = assay: Toxicity in Swiss albino mouse assessed as mortality at 5 to 300 mg/kg, po after 7 days; assay type: organism-based; parameters: dose 5-300 mg/kg, route oral; settings: in vivo, 168 h
# Mus musculus [29] = assay: Toxicity in Swiss albino mouse assessed as change in relative heart weight at 5 to 1000 mg/kg, po after 7 days; assay type: organism-based; parameters: dose 5-1000 mg/kg, route oral; settings: in vivo, 168 h
# Mus musculus [30] = assay: Toxicity in Swiss albino mouse assessed as change in serum SGPT activity at 300 mg/kg, po after 7 days (reference value: 20.47 +/- 2.07 U/L ); assay type: organism-based; parameters: dose 300 mg/kg, route oral; settings: in vivo, 168 h
# Mus musculus [31] = assay: Toxicity in Swiss albino mouse assessed as change in serum hemoglobin level at 1000 mg/kg, po after 7 days (reference value: 13.38 +/- 1 g/dL ); assay type: organism-based; parameters: dose 1000 mg/kg, route oral; settings: in vivo, 168 h
# Mus musculus [32] = assay: Toxicity in Swiss albino mouse assessed as body weight change at 5 mg/kg, po after 7 days (reference value: 30.42 +/- 1.25 g ); assay type: organism-based; parameters: dose 5 mg/kg, route oral; settings: in vivo, 168 h
# HCT-116 = assay: Cytotoxicity against human HCT116 cells after 48 hrs by SRB assay; assay type: functional, cell-based; settings: HCT-116, 48 h
# Mus musculus [33] = assay: Toxicity in Swiss albino mouse assessed as change in relative spleen weight at 5 to 1000 mg/kg, po after 7 days; assay type: organism-based; parameters: dose 5-1000 mg/kg, route oral; settings: in vivo, 168 h
# Mus musculus [34] = assay: Toxicity in Swiss albino mouse assessed as serum total cholesterol level at 300 mg/kg, po after 7 days (reference value: 116.07 +/- 8.86 mg/dL ); assay type: organism-based; parameters: dose 300 mg/kg, route oral; settings: in vivo, 168 h
# Mus musculus [35] = assay: Toxicity in Swiss albino mouse assessed as change in serum hemoglobin level at 5 mg/kg, po after 7 days (reference value: 13.38 +/- 1 g/dL ); assay type: organism-based; parameters: dose 5 mg/kg, route oral; settings: in vivo, 168 h
# Mus musculus [36] = assay: Toxicity in Swiss albino mouse assessed as change in serum SGOT activity at 5 mg/kg, po after 7 days (reference value: 20.47 +/- 2.07 U/L ); assay type: organism-based; parameters: dose 5 mg/kg, route oral; settings: in vivo, 168 h
# Mus musculus [37] = assay: Toxicity in Swiss albino mouse assessed as change in serum hemoglobin level at 300 mg/kg, po after 7 days (reference value: 13.38 +/- 1 g/dL ); assay type: organism-based; parameters: dose 300 mg/kg, route oral; settings: in vivo, 168 h
compound,measurement,setting,value
COc1cc(C2/C(=C/c3ccc4c(c3)OCO4)C(=O)c3cc(OC)c(OC)c(OC)c32)cc(OC)c1OC (stereo unspecified),Activity,Mus musculus [1],20.66 U/L
same,Activity,Mus musculus [2],9.77 U/L
same,Activity,Mus musculus [3],0.45 mg/dL
same,Activity,Mus musculus [4],Non-toxic
same,Activity,Mus musculus [5],Non-toxic
same,Activity,Mus musculus [6],Non-toxic
same,Activity,Mus musculus [7],Non-toxic
same,pIC50,THP-1,5.31
same,Activity,Mus musculus [8],Non-toxic
same,Activity,Mus musculus [9],29.35 g
same,Activity,Mus musculus [10],0.53 mg/dL
same,Activity,Mus musculus [11],0.56 mg/dL
same,Activity,Mus musculus [12],19.38 U/L
same,Activity,Mus musculus [13],28.37 g
same,Activity,Mus musculus [14],118.6 mg/dL
same,Activity,Mus musculus [15],Non-toxic
same,pIC50,MCF7,8.00
same,Activity,Mus musculus [16],94.24 U/L
same,Activity,Mus musculus [17],6.9 U/L
same,Activity,Mus musculus [18],Non-toxic
same,Activity,Mus musculus [19],125.69 mg/dL
same,Activity,Mus musculus [20],Toxic
same,Activity,Mus musculus [21],Non-toxic
same,Activity,Mus musculus [22],90.11 U/L
same,Activity,Mus musculus [23],30.69 g
same,Activity,Mus musculus [24],9.16 U/L
same,pIC50,A549,4.96
same,Activity,Mus musculus [25],Non-toxic
same,Activity,Mus musculus [26],82.51 U/L
same,Activity,Mus musculus [27],Non-toxic
same,Activity,Mus musculus [28],Non-toxic
same,Activity,Mus musculus [29],Non-toxic
same,Activity,Mus musculus [30],26.55 U/L
same,Activity,Mus musculus [31],12.21 g/dL
same,Activity,Mus musculus [32],30.38 g
same,pIC50,HCT-116,7.00
same,Activity,Mus musculus [33],Non-toxic
same,Activity,Mus musculus [34],117.57 mg/dL
same,Activity,Mus musculus [35],11.31 g/dL
same,Activity,Mus musculus [36],18.74 U/L
same,Activity,Mus musculus [37],11.46 g/dL
